These are literature values, as cited in patent US12324852B2, “Administration of benzodiazepine compositions” (Neurelis, Inc., priority 2011, dated 2025).

On to `Cc1ncc2n1-c1ccc(Cl)cc1C(c1ccccc1F)=NC2` [Midazolam, 8-chloro-6-(2-fluorophenyl)-1-methyl-4H-imidazo(1,5-a)benzodiazepine], for which the “solubility in most aqueous solutions” value (neutral pH (e.g. about 6 to 8)) is recorded as “relatively insoluble”. Further, the solubility in water result (pH lower than about 4) is “soluble in water”.
